Results taken from ChEMBL document CHEMBL1131708, “Synthesis and protein kinase C binding activity of benzolactam-V7” (Bioorg Med Chem Lett, 1999).

Experiments:
[1] = biological target: T1, Protein kinase C alpha type (Homo sapiens, UniProt P17252); assay: Displacement of phorbol 12,13-dibutyrate (PDBU) from recombinant Protein kinase C alpha (Inactive at 300 nM)
[2] = biological target: T1, Protein kinase C alpha type; assay: Displacement of phorbol 12,13-dibutyrate (PDBU) from recombinant Protein kinase C alpha

Structure (SMILES)	Ki [1]	Ki [2] [µM]
CC(C)[C@H]1C(=O)NC(CO)c2ccccc2N1C (single isomer, unassigned)	Not Active	
CC(C)[C@H]1C(=O)N[C@H](CO)c2ccccc2N1C		127
CCCCCCCCC#Cc1ccc2c(c1)[C@@H](CO)NC(=O)[C@H](C(C)C)N2C		21
